Among the data in ChEMBL document CHEMBL3286170, “Design, synthesis and antimycobacterial activity evaluation of natural oridonin derivatives” (2014) are MIC values, retold here.

Molecules are shown by their SMILES. Values after ≈ are worked out from the molar mass of the structure shown.

What is called MIC is the smallest concentration in the dilution series that meets the test's criterion for growth inhibition. A higher MIC goes with weaker potency.

What all share (format): functional
One assay deals with Mycolicibacterium phlei. As to the kind of experiment: Antimycobacterial activity against Mycobacterium phlei ATCC 355 after 1 day by alamar blue assay. The conditions noted are these: ATCC 355, 24 h. In general terms: Resazurin is reduced to fluorescent resorufin, in cell work by metabolically active cells.
Assay [1] deals with Mycolicibacterium smegmatis. Put plainly: Antimycobacterial activity against Mycobacterium smegmatis ATCC 19420 after 1 day. The conditions noted are these: ATCC 19420, 24 h.
The test system of a further assay is Mycobacterium marinum. As to the kind of experiment: Antimycobacterial activity against Mycobacterium marinum ATCC 927 after 7 days. The conditions noted are these: ATCC 927, 168 h.

`C=C1C(=O)[C@]23[C@H](OC(=O)CCCCCCC)[C@H]1CC[C@H]2[C@@]12CO[C@]3(O)[C@@H](O)[C@@H]1C(C)(C)CC[C@@H]2O`: the values for the minimal inhibitory concentration (MIC) (with Mycolicibacterium phlei; in assay [1]; in the assay on Mycobacterium marinum) were 2 µg/mL (≈ 4.08 µM), 16 µg/mL (≈ 32.6 µM) and 16 µg/mL (≈ 32.6 µM), respectively.

`C=C1C(=O)[C@@]23C(=O)O[C@H]4CCC(C)(C)[C@H]5[C@H](O)OC[C@@]45[C@@H]2CC[C@@H]1[C@H]3O`: the minimum inhibitory concentration (MIC) with Mycolicibacterium phlei came out at 32 µg/mL (≈ 88.3 µM).

In the assay on Mycolicibacterium phlei, `C=C1C(=O)[C@]23[C@H](OC(=O)c4ccc(F)cc4)[C@H]1CC[C@H]2[C@@]12CO[C@]3(O)[C@@H](O)[C@@H]1C(C)(C)CC[C@@H]2O` had an MIC of 32 µg/mL (≈ 65.8 µM).

For `C=C1C(=O)[C@@]23C(=O)O[C@H]4CCC(C)(C)[C@H]5C(=O)OC[C@@]45[C@@H]2CC[C@@H]1[C@H]3O`, in the assay on Mycolicibacterium phlei, the MIC worked out at 16 µg/mL (≈ 44.4 µM).

As for `C=C1C(=O)[C@]23[C@H](OC(=O)/C=C/c4ccc(F)cc4)[C@H]1CC[C@H]2[C@@]12CO[C@]3(O)[C@@H](O)[C@@H]1C(C)(C)CC[C@@H]2O`, the minimum inhibitory concentration (MIC) in the assay on Mycolicibacterium phlei came out at 2 µg/mL (≈ 3.9 µM); in assay [1], 4 µg/mL (≈ 7.8 µM); in the assay on Mycobacterium marinum, 8 µg/mL (≈ 15.6 µM).

`C=C1C(=O)[C@@]23C(=O)O[C@H]4CCC(C)(C)[C@H]5[C@H](O)OC[C@@]45[C@@H]2CC[C@@H]1[C@H]3OC(=O)/C=C/c1ccccc1`: the MIC in the assay with Mycolicibacterium phlei is 2 µg/mL (≈ 4.06 µM); in assay [1], 16 µg/mL (≈ 32.5 µM); against Mycobacterium marinum it was 32 µg/mL (≈ 65 µM).

For the molecule `C=C1C(=O)[C@]23[C@H](OC(=O)/C=C/c4ccc(OC)c(OC)c4)[C@H]1CC[C@H]2[C@@]12CO[C@]3(O)[C@@H](O)[C@@H]1C(C)(C)CC[C@@H]2O`, the MIC against Mycolicibacterium phlei was 1 µg/mL (≈ 1.8 µM); in assay [1], 8 µg/mL (≈ 14.4 µM); in the assay with Mycobacterium marinum, 16 µg/mL (≈ 28.8 µM).

In the assay with Mycolicibacterium phlei, `C=C1C(=O)[C@]23[C@H](OC(=O)C4CCCCC4)[C@H]1CC[C@H]2[C@@]12CO[C@]3(O)[C@@H](O)[C@@H]1C(C)(C)CC[C@@H]2O` gave an MIC of 8 µg/mL (≈ 16.9 µM).

For the molecule `C=C1C(=O)[C@@]23C(=O)O[C@H]4CCC(C)(C)[C@H]5C(=O)OC[C@@]45[C@@H]2CC[C@@H]1[C@H]3OC(C)=O`, the results for the minimal inhibitory concentration (MIC) (against Mycolicibacterium phlei; in assay [1]; in the assay with Mycobacterium marinum) were 2 µg/mL (≈ 4.97 µM), 64 µg/mL (≈ 159 µM) and 64 µg/mL (≈ 159 µM), respectively.

As to `C=C1C(=O)[C@@]23C(=O)O[C@H]4CCC(C)(C)[C@H]5[C@H](O)OC[C@@]45[C@@H]2CC[C@@H]1[C@H]3OC(=O)/C=C/c1ccc(OC)cc1`, the minimum inhibitory concentration (MIC) in the assay on Mycolicibacterium phlei stood at 2 µg/mL (≈ 3.83 µM); in assay [1] it was 16 µg/mL (≈ 30.6 µM); in the assay with Mycobacterium marinum it was 32 µg/mL (≈ 61.2 µM).

With `C=C1C(=O)[C@]23[C@H](OC(=O)C45CC6CC(CC(C6)C4)C5)[C@H]1CC[C@H]2[C@@]12CO[C@]3(O)[C@@H](O)[C@@H]1C(C)(C)CC[C@@H]2O`, in the assay on Mycolicibacterium phlei, the MIC was determined as 16 µg/mL (≈ 30.4 µM).

In turn, `C=C1C(=O)[C@]23[C@H](OC(=O)Cc4c[nH]c5ccccc45)[C@H]1CC[C@H]2[C@@]12CO[C@]3(O)[C@@H](O)[C@@H]1C(C)(C)CC[C@@H]2O` yielded a minimum inhibitory concentration (MIC) with Mycolicibacterium phlei of 32 µg/mL (≈ 61.3 µM).

The molecule `C=C1C(=O)[C@]23[C@H](OC(=O)c4ccc(C(F)(F)F)cc4)[C@H]1CC[C@H]2[C@@]12CO[C@]3(O)[C@@H](O)[C@@H]1C(C)(C)CC[C@@H]2O` returned a minimum inhibitory concentration (MIC) with Mycolicibacterium phlei of 16 µg/mL (≈ 29.8 µM).

For the molecule `C=C1C(=O)[C@@]23C(=O)O[C@H]4CCC(C)(C)[C@H]5[C@H](O)OC[C@@]45[C@@H]2CC[C@@H]1[C@H]3OC(=O)c1ccc(C(F)(F)F)cc1`, the minimal inhibitory concentration (MIC) in the assay on Mycolicibacterium phlei turned out to be 8 µg/mL (≈ 15 µM); in assay [1], 16 µg/mL (≈ 29.9 µM); against Mycobacterium marinum, 16 µg/mL (≈ 29.9 µM).

Take `CN[C@@H]1[C@H](O[C@H]2[C@H](O[C@H]3[C@H](O)[C@@H](O)[C@H](N=C(N)N)[C@@H](O)[C@@H]3N=C(N)N)O[C@@H](C)[C@]2(O)C=O)O[C@@H](CO)[C@H](O)[C@H]1O` [STREPTOMYCIN]: the MIC in the assay with Mycolicibacterium phlei turned out to be 0.5 µg/mL (≈ 0.86 µM); in assay [1], 0.125 µg/mL (≈ 0.215 µM); in the assay with Mycobacterium marinum, 0.5 µg/mL (≈ 0.86 µM).

`C=C1C(=O)[C@]23[C@H](OC(=O)/C=C/c4ccc(OC)cc4)[C@H]1CC[C@H]2[C@@]12CO[C@]3(O)[C@@H](O)[C@@H]1C(C)(C)CC[C@@H]2O`: the MIC in the assay on Mycolicibacterium phlei worked out at 0.5 µg/mL (≈ 0.953 µM); in assay [1], 4 µg/mL (≈ 7.62 µM); in the assay on Mycobacterium marinum, 4 µg/mL (≈ 7.62 µM).

With `C=C1C(=O)[C@@]23C(=O)O[C@H]4CCC(C)(C)[C@H]5[C@H](O)OC[C@@]45[C@@H]2CC[C@@H]1[C@H]3OC(=O)/C=C/c1ccc(F)cc1`, the results for the minimum inhibitory concentration (MIC) (in the assay on Mycolicibacterium phlei; in assay [1]; against Mycobacterium marinum) were 0.5 µg/mL (≈ 0.979 µM), 16 µg/mL (≈ 31.3 µM) and 16 µg/mL (≈ 31.3 µM), respectively.

With `C=C1C(=O)[C@]23[C@H](O)[C@H]1CC[C@H]2[C@@]12CO[C@]3(O)[C@@H](O)[C@@H]1C(C)(C)CC[C@@H]2O` [ORIDONIN], the MIC with Mycolicibacterium phlei was 16 µg/mL (≈ 43.9 µM); in assay [1] it was > 64 µg/mL; in the assay on Mycobacterium marinum, > 64 µg/mL.

`C=C1C(=O)[C@]23[C@H](O)[C@H]1CC[C@H]2[C@@]12CO[C@]3(O)[C@@H](O)[C@@H]1C(C)(C)CCC2=O` registered a minimal inhibitory concentration (MIC) with Mycolicibacterium phlei of 8 µg/mL (≈ 22.1 µM).

For `C=C1C(=O)[C@]23[C@H](OC(=O)/C=C/c4ccccc4)[C@H]1CC[C@H]2[C@@]12CO[C@]3(O)[C@@H](O)[C@@H]1C(C)(C)CC[C@@H]2O`, the minimum inhibitory concentration (MIC) against Mycolicibacterium phlei was determined as 1 µg/mL (≈ 2.02 µM); in assay [1] it was 8 µg/mL (≈ 16.2 µM); with Mycobacterium marinum, 8 µg/mL (≈ 16.2 µM).

Turning to `C=C1C(=O)[C@]23[C@H](OC(=O)/C=C/c4ccc(F)cc4)[C@H]1CC[C@H]2[C@@]12CO[C@]3(O)[C@@H](O)[C@@H]1C(C)(C)CC[C@@H]2OC(C)=O`, the MIC came to 8 µg/mL (≈ 14.4 µM) with Mycolicibacterium phlei, 16 µg/mL (≈ 28.8 µM) in assay [1] and 64 µg/mL (≈ 115 µM) in the assay on Mycobacterium marinum.

For `C=C1C(=O)[C@]23[C@H](OC(=O)C4CCCCC4)[C@H]1CC[C@H]2[C@@]12CO[C@]3(O)[C@@H](O)[C@@H]1C(C)(C)CC[C@@H]2OC(C)=O`, the minimum inhibitory concentration (MIC) against Mycolicibacterium phlei was found to be 8 µg/mL (≈ 15.5 µM).

On to `C=C1C(=O)[C@]23[C@H](OC(=O)c4cnccn4)[C@H]1CC[C@H]2[C@@]12CO[C@]3(O)[C@@H](O)[C@@H]1C(C)(C)CC[C@@H]2O`, for which the minimum inhibitory concentration (MIC) in the assay on Mycolicibacterium phlei is 4 µg/mL (≈ 8.5 µM); in assay [1], 32 µg/mL (≈ 68 µM); against Mycobacterium marinum it was 32 µg/mL (≈ 68 µM).

On to `C=C1C(=O)[C@]23[C@H](OC(=O)/C=C/c4ccc(F)cc4)[C@H]1CC[C@H]2[C@@]12CO[C@]3(O)[C@@H](O)[C@@H]1C(C)(C)CCC2=O`, for which the MIC was 8 µg/mL (≈ 15.7 µM) against Mycolicibacterium phlei, 16 µg/mL (≈ 31.3 µM) in assay [1] and 64 µg/mL (≈ 125 µM) with Mycobacterium marinum.

Turning to `C=C1C(=O)[C@]23[C@H](OC(=O)c4cccnc4)[C@H]1CC[C@H]2[C@@]12CO[C@]3(O)[C@@H](O)[C@@H]1C(C)(C)CC[C@@H]2O`, 16 µg/mL (≈ 34.1 µM) was the least that counted as inhibitory against Mycolicibacterium phlei (MIC).

For `C=C1C(=O)[C@]23[C@H](OC(=O)c4ccc(C(F)(F)F)cc4)[C@H]1CC[C@H]2[C@@]12CO[C@]3(O)[C@@H](O)[C@@H]1C(C)(C)CC[C@@H]2OC(C)=O`, 16 µg/mL (≈ 27.7 µM) was the least that counted as inhibitory in the assay on Mycolicibacterium phlei (MIC).

As to `C=C1C(=O)[C@@]23C(=O)O[C@H]4CCC(C)(C)[C@H]5C(=O)OC[C@@]45[C@@H]2CC[C@@H]1[C@H]3OC(=O)c1ccc(F)cc1`, the minimal inhibitory concentration (MIC) against Mycolicibacterium phlei amounted to 2 µg/mL (≈ 4.15 µM); in assay [1], 16 µg/mL (≈ 33.2 µM); against Mycobacterium marinum, 32 µg/mL (≈ 66.3 µM).

Molecule `C=C1C(=O)[C@]23[C@H](OC(=O)c4ccc(C(F)(F)F)cc4)[C@H]1CC[C@H]2[C@@]12CO[C@]3(O)[C@@H](O)[C@@H]1C(C)(C)CCC2=O` returned an MIC in the assay on Mycolicibacterium phlei of 16 µg/mL (≈ 29.9 µM).

For the molecule `C=C1C(=O)[C@]23[C@H](O)[C@H]1CC[C@H]2[C@@]12CO[C@@]3(O)[C@@H](O)[C@@H]1C(C)(C)CC[C@@H]2OC(C)=O` [LASIOKAURIN], the MIC in the assay on Mycolicibacterium phlei was 1 µg/mL (≈ 2.46 µM); in assay [1], 16 µg/mL (≈ 39.4 µM); against Mycobacterium marinum, 32 µg/mL (≈ 78.7 µM).

Turning to `C=C1C(=O)[C@@]23C(=O)O[C@H]4CCC(C)(C)[C@H]5C(=O)OC[C@@]45[C@@H]2CC[C@@H]1[C@H]3OC(=O)/C=C/c1ccc(F)cc1`, the MIC with Mycolicibacterium phlei was found to be 0.5 µg/mL (≈ 0.983 µM); in assay [1], 4 µg/mL (≈ 7.87 µM); in the assay with Mycobacterium marinum, 4 µg/mL (≈ 7.87 µM).

The molecule `C=C1C(=O)[C@@]23C(=O)O[C@H]4CCC(C)(C)[C@H]5[C@H](O)OC[C@@]45[C@@H]2CC[C@@H]1[C@H]3OC(C)=O` registered a minimal inhibitory concentration (MIC) in the assay on Mycolicibacterium phlei of 32 µg/mL (≈ 79.1 µM).

As to `C=C1C(=O)[C@@]23C(=O)O[C@H]4CCC(C)(C)[C@H]5C(=O)OC[C@@]45[C@@H]2CC[C@@H]1[C@H]3OC(=O)/C=C/c1ccccc1`, the MIC worked out at 0.5 µg/mL (≈ 1.02 µM) against Mycolicibacterium phlei, 4 µg/mL (≈ 8.15 µM) in assay [1] and 4 µg/mL (≈ 8.15 µM) against Mycobacterium marinum.

The molecule `C=C1C(=O)[C@]23[C@H](OC(=O)C4CCCCC4)[C@H]1CC[C@H]2[C@@]12CO[C@]3(O)[C@@H](O)[C@@H]1C(C)(C)CCC2=O` gave an MIC against Mycolicibacterium phlei of 16 µg/mL (≈ 33.9 µM).
